Among the data in article PMC4048267, “Purification and Characterization of a Novel and Robust L-Asparaginase Having Low-Glutaminase Activity from Bacillus licheniformis: In Vitro Evaluation of Anti-Cancerous Properties” (PLoS ONE, 2014) are Km values, retold here.

The test relates to T1, L-asparaginase from Bacillus licheniformis RAM-8.
T1 construct: gene L-asparagine amidohydrolase
The conditions noted are these: 25 °C; L-asparagine 2 to 20 mM; assay buffer 50 mM Tris-HCl pH 8.6.

The Km is the substrate concentration at which the rate is half of its maximum. Consider `NC(=O)C[C@H](N)C(=O)O` [L-asparagine], for which the Km was 14 µM.
